# Earlier results, collected in article PMC4891577, “Exploiting Phenylpropanoid Derivatives to Enhance the Nutraceutical Values of Cereals and Legumes” (Frontiers in Plant Science, 2016).
# Tested on: lipogenic proteins
# Parameters: method as in Chavez-Santoscoy et al., 2014; Ramírez-Jiménez et al., 2015
# Conditions: black bean flavonoid; ref Chavez-Santoscoy et al., 2014; Ramírez-Jiménez et al., 2015
row,SMILES,effect on expression of lipogenic proteins
1,O=c1c(O[C@@H]2O[C@H](CO)[C@@H](O)[C@H](O)[C@H]2O)c(-c2ccc(O)c(O)c2)oc2cc(O)cc(O)c12 [quercetin 3-glucoside],strong effects on down-regulation of expression of lipogenic proteins

# Tested on: Caco-2 cells
# Parameters: method as in Hart et al., 2015
# Conditions: polyphenols of black bean seed coats; ref Hart et al., 2015
row,SMILES,effect on Fe uptake
1,"O=C(O)c1ccc(O)c(O)c1 [3,4-dihydroxybenzoic acid]",promote Fe uptake
2,O.Oc1cc(O)c2c(c1)O[C@H](c1ccc(O)c(O)c1)[C@@H](O)C2 [Catechin],promote Fe uptake
3,O=c1c(O[C@@H]2O[C@H](CO)[C@@H](O)[C@H](O)[C@H]2O)c(-c2ccc(O)cc2)oc2cc(O)cc(O)c12 [kaempferol 3-glucoside],promote Fe uptake
4,O=c1c(O)c(-c2ccc(O)cc2)oc2cc(O)cc(O)c12 [kaempferol],promote Fe uptake
5,O=c1c(OC2O[C@H](CO)[C@@H](O)[C@H](O)[C@H]2O)c(-c2cc(O)c(O)c(O)c2)oc2cc(O)cc(O)c12 (stereo partly drawn) [myricetin 3-glucoside],inhibit Fe uptake
6,O=c1c(O)c(-c2cc(O)c(O)c(O)c2)oc2cc(O)cc(O)c12 [myricetin],inhibit Fe uptake
7,O=c1c(O[C@@H]2O[C@H](CO)[C@@H](O)[C@H](O)[C@H]2O)c(-c2ccc(O)c(O)c2)oc2cc(O)cc(O)c12 [quercetin 3-glucoside],inhibit Fe uptake
8,O=c1c(O)c(-c2ccc(O)c(O)c2)oc2cc(O)cc(O)c12 [quercetin],inhibit Fe uptake
